Laboratory results published in paper PMC5923396 (Marine Drugs, 2018).
pIC50: −log10 of the molar value. Read-outs that look alike come from different tables or passages of the source.

Tests used:
human α7 nAChR = system: human α7 nAChR; design: method as in PMID 24686559; conditions: cited from earlier work
[1] = target: T1, wild-type (WT) muscle nAChR (Mus musculus, UniProt P02716+P04756+P20782); test: Fluorescent detection of cytoplasmic Ca2+ rise in transfected Neuro2a cells (Case12); type: cell-based; conditions: 2.5 μM MG, Ca2+ fluorescence
T1 construct: expressed in transfected cells; host or cells: mouse neuroblastoma Neuro2a cells, transient co-transfection with the Case12 calcium sensor

rat α4β2 nAChR = target: T2, rat α4β2 nAChR (Rattus norvegicus, UniProt P09483+P12390); test: Two-electrode voltage clamp, ACh-evoked currents in Xenopus oocytes; type: cell-based
T2 construct: expressed in transfected cells; host or cells: Xenopus oocytes injected with plasmid DNA (pcDNA 3.1 vector)

[2] = target: T3, Torpedo californica muscle-type nAChR (Tetronarce californica, UniProt P02710+P02714+P02718); test: Intrinsic tryptophan fluorescence quenching; type: binding; conditions: 2 μM MG; λex 280 nm, λem 340 nm; prevented by α-Bgt pre-incubation
T3 construct: from tissue; host or cells: Torpedo californica electric organ membranes
Protocol: Intrinsic tryptophane fluorescence detection. Electric organ membranes of Torpedo californica at the final concentration of 1 nM of toxin-binding sites in a 20 mM Tris-HCl buffer were mixed with Makaluvamine G (final concentration 2 μM) and the control membranes were pre-incubated with 1 μM αBgt for 30 min. Measurements were done on a Cary Eclipse (Agilent, Santa Clara, CA, USA) spectrofluorimeter with a standard kinetics software (version 1.2) with excitation wavelength 280 nm and emission wavelength 340 nm (both with 5 nm slits). The data were exported to csv files and analyzed in the LibreOffice 6.0 Calc software (The Document Foundation, Berlin, Germany).

α1β3γ2 GABAAR [3] = target: T4, α1β3γ2 GABAAR (Mus musculus, UniProt P62812+P63080); test: Two-electrode voltage clamp, GABA-evoked currents in Xenopus oocytes; type: cell-based, murine; conditions: 25 μM MG; surmountable by higher GABA concentrations
mice [4] = test: In vivo toxicity in mice (literature); conditions: corresponds to 210 mg/kg
mice [5] = system: mice; design: method as in doi:10.1016/S0040-4020(01)96256-8; conditions: cited from earlier work
α4β2 nAChR = α4β2 nAChR (Rattus norvegicus, UniProt P09483+P12390); type: binding; conditions: test ligand concentrations up to 1 mM
homopentameric α1 GlyR = system: homopentameric α1 GlyR; design: method as in PMID 24686559; conditions: cited from earlier work
murine muscle nAChR = target: T5, murine muscle nAChR (Mus musculus, UniProt P02716+P04756+P20782); test: Two-electrode voltage clamp, acetylcholine-evoked current in Xenopus oocytes; type: cell-based; conditions: for inhibition at 2.5 µM: holding potential −70 mV, read-out: inhibition extent, peak current amplitude
T5 construct: expressed in transfected cells; host or cells: Xenopus oocytes injected with plasmid DNA (pRBG4 vector)

α1β3γ2 GABAAR [6] = target: T4, α1β3γ2 GABAAR; test: Fluorescent α-Ctx competition assay on Neuro2a cells; type: binding, murine; design: expressed in transfected cells; host or cells: mouse neuroblastoma Neuro2a cells, transient transfection; conditions: 50 μM MG
topoisomerase I = target: topoisomerase I; design: method as in doi:10.1016/S0040-4020(01)96256-8; conditions: read-out: IC50 topoisomerase I inhibiting; cited from earlier work
different types of cells = system: different types of cells; design: method as in doi:10.1016/S0040-4020(01)96256-8; conditions: cited from earlier work
[7] = design: method as in earlier work; conditions: cited from earlier work
GABAAR = conditions: cited from earlier work

Row | Compound | potency at muscle nAChR relative to human α7 nAChR (human α7 nAChR) | effect on WT receptor dose response to acetylcholine [1] | inhibition of ACh-evoked currents (rat α4β2 nAChR; high micromolar range (25 μM MG, 50 μM acetylcholine)) | time to recovery of normal current amplitude after washout (rat α4β2 nAChR; reversibility of inhibition, data not shown) [min] | intrinsic Trp fluorescence quenching [2] | inhibition of GABA-evoked currents (α1β3γ2 GABAAR [3]) | dose not toxic to mice, molar (mice [4]) [µmol/kg] | dose not toxic to mice (mice [5]) | inhibition of [3H]-epibatidine binding (α4β2 nAChR) | inhibition of α1 GlyR (homopentameric α1 GlyR) | inhibition at 2.5 µM (murine muscle nAChR; 2.5 μM MG co-applied with 10 μM acetylcholine) [%] | inhibition at 2.5 µM (murine muscle nAChR; 2.5 μM MG co-applied with 1000 μM acetylcholine) [%] | dependence of inhibition on membrane potential (open-channel block) (murine muscle nAChR; 2.5 μM MG, 30 μM acetylcholine, −30 to −100 mV, current amplitude and net charge) | inhibition of fluorescent α-Ctx binding (α1β3γ2 GABAAR [6]) | pIC50 (topoisomerase I) | concentrations showing cytotoxicity (different types of cells) [nM] | LD50 [7] | affinity at GABAAR (GABAAR)
1 | Cn1cc2c3c1C(=O)C(N/C=C/c1ccc(O)cc1)=CC3=[N+](C)CC2 [MG, Makaluvamine G] | at least one order of magnitude more potent | does not affect | only weak inhibition | 15 to 20 | induces a drop of intrinsic tryptophan fluorescence | inhibits | 629 | up to 210 mg/kg | partial | does not inhibit | 27 | 81 | No increase in the inhibition | Only partial inhibition | ~5.52 | 1000 to 70000 |  | 
2 | COc1cc2c3cc1Oc1cc(ccc1O)C[C@@H]1c4c(cc(OC)c(O)c4Oc4ccc(cc4)C[C@@H]3N(C)CC2)CC[N+]1(C)C [d-tubocurarine] |  |  |  |  |  |  |  |  |  |  |  |  |  |  |  |  | less than 0.7 μmole/kg | sub-micromolar
3 | α-cobratoxin |  |  |  |  |  |  |  |  |  |  |  |  |  |  |  |  |  | sub-micromolar
